Results: article PMC10787067, “EBF2 Links KMT2D‐Mediated H3K4me1 to Suppress Pancreatic Cancer Progression via Upregulating KLLN” (Advanced Science, 2023)

Assays:
[1] = system: PDX tumors; assay: Patient-derived xenograft (PDX) model of PDAC; type: in vivo, Human (xenograft in immunodeficient nude mice)
Text: A PDX model was established by implanting tumor fragments into immunodeficient nude mice. Tumor fragments were derived from a PDAC patient with stage II ductal adenocarcinoma, who underwent surgery at the Second Affiliated Hospital of Nanjing Medical University. Informed consent was obtained from each patient, and all procedures involving human samples were approved by the Ethics Committee of the Second Affiliated Hospital of Nanjing Medical University.

[2] = system: H3K4me1; assay: Western blot of H3K4me1 in SW1990 cells; type: cell-based, Human
[3] = system: PANC‐1 cells; assay: Transwell migration and invasion, PANC-1; type: cell-based, Human; settings: 24 h, vs Vehicle, p < 0.01, Figure S4G
Method: Cell proliferation was determined by Cell Counting Kit‐8 (CCK‐8, Yeasen) and EdU Cell Proliferation Assay kit (Ribobio, Guangzhou, China). Colony formation was observed by staining with 0.1% crystal violet (Sangon Biotechnologies Inc., Shanghai, China). Cell migration and invasion were assessed using […] pore Transwell chambers with (for invasion assay) or without Matrigel (for migration assay). For migration assay, 5 × 10^4 SW1990 or 3 × 10^4 PANC‐1 cells were seeded into the upper chamber of the Transwell apparatus (Corning, USA) in serum‐free medium, and the medium supplemented with 10% FBS was added to the bottom chamber. For invasion assay, 10 × 10^4 SW1990 or 6 × 10^4 PANC‐1 cells were seeded into the upper Corning BioCoat Matrigel invasion chamber. After 24 h, the cells on the upper surface that had not passed through the polycarbonate filter were removed using a moistened cotton swab; the cells having migrated to the lower membrane surface were fixed in 100% methanol for 10 min, stained with 0.4% crystal violet for 15 min, and counted under a microscope (Nikon, Japan) at ×100 magnification. The cells were manually counted using Image J software. Three independent experiments were performed.

c1ccc([C@@H]2C[C@H]2NC2CCNCC2)cc1 [GSK‐LSD1]
effect compared with Gemcitabine ([1]; PDX mice, n = 5, doses not given, Figure 5N,O): more favorable effects than Gemcitabine | PDX tumor size compared with control mice ([1]; n = 5, dose not given, Figure 5N): remarkably smaller tumors | H3K4me1 level, concentration dependence ([2]; 0, 1, 10, or 100 µM GSK-LSD1, Figure 5E): increased the levels of H3K4me1 and KLLN in a concentration‐dependent manner | H3K4me1 level in Co-IP experiment ([2]; vs vehicle, concentration not given, Figure 5P): increased H3K4me1 level | invasion ([3]; Transwell with Matrigel): significantly inhibited | migration ([3]; Transwell without Matrigel): significantly inhibited
